Measurements taken from ChEMBL document CHEMBL1201862, “PubChem BioAssay data set” (2004).
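Interpolation was linear, between the two tested concentrations surrounding the appropriate level; five concentrations were tested over 48 hours in 96-well plates. GI50 = concentration required for 50% inhibition of growth.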 Activity calls are given as the source filed them. Cut-off read from the data, not from the text of the source: active = GI50 up to about 1.1 µM and inactive = higher.

Tests used:
Test in all cases: growth of human tumour cells (NCI), 48 h
[1] = tested on: RXF 393
[2] = tested on: SNB-19
[3] = tested on: SK-MEL-5
[4] = tested on: UO-31
[5] = tested on: SN12C
[6] = tested on: OVCAR-3
[7] = tested on: DU-145
[8] = tested on: T47D
[9] = tested on: UACC-257
[10] = tested on: KM12
[11] = tested on: EKVX
[12] = tested on: MCF7
[13] = tested on: U-251
[14] = tested on: SR
[15] = tested on: LOX IMVI
[16] = tested on: K562
[17] = tested on: A549
[18] = tested on: UACC-62
[19] = tested on: MDA-MB-231

## Cc1cc(S(N)(=O)=O)c(SCc2nc(N)nc(N(C)C)n2)cc1Cl
[1]
  GI50: > 10 µM (inactive)
[2]
  GI50: > 10 µM (inactive)
[3]
  GI50: > 10 µM (inactive)
[4]
  GI50: > 10 µM (inactive)
[5]
  GI50: > 10 µM (inactive)
[6]
  GI50: > 10 µM (inactive)
[7]
  GI50: > 10 µM (inactive)
[8]
  GI50: > 10 µM (inactive)
[9]
  GI50: > 10 µM (inactive)
[10]
  GI50: > 10 µM (inactive)
[11]
  GI50: > 10 µM (inactive)
[12]
  GI50: > 10 µM (inactive)
[13]
  GI50: > 10 µM (inactive)
[14]
  GI50: > 10 µM (inactive)
[15]
  GI50: > 10 µM (inactive)
[16]
  GI50: > 10 µM (inactive)
[17]
  GI50: > 10 µM (inactive)

## N#CC1(C#N)N[C@@H](c2ccsc2)[C@H]2C(=O)N(c3ccccc3)C(=O)[C@H]21
[1]
  GI50: 70.3 µM (inactive)
[3]
  GI50: 35.4 µM (inactive)
[18]
  GI50: 28.8 µM (inactive)
[4]
  GI50: > 100 µM (inactive)
[5]
  GI50: 89.1 µM (inactive)
[6]
  GI50: > 100 µM (inactive)
[7]
  GI50: 66.4 µM (inactive)
[19]
  GI50: 61 µM (inactive)
[8]
  GI50: 63.2 µM (inactive)
[9]
  GI50: 29.6 µM (inactive)
[10]
  GI50: > 100 µM (inactive)
[11]
  GI50: > 100 µM (inactive)
[13]
  GI50: 77.6 µM (inactive)
[14]
  GI50: 21.3 µM (inactive)
[15]
  GI50: 37.3 µM (inactive)
[16]
  GI50: 51.9 µM (inactive)
[17]
  GI50: > 100 µM (inactive)

## Cn1c(=O)sc2cc(C(=S)N3CCN(c4ccccc4)CC3)ccc21
[1]
  GI50: 30.5 µM (inactive)
[2]
  GI50: 45.3 µM (inactive)
[3]
  GI50: > 100 µM (inactive)
[18]
  GI50: 31.8 µM (inactive)
[5]
  GI50: 50.6 µM (inactive)
[6]
  GI50: 54.8 µM (inactive)
[7]
  GI50: > 100 µM (inactive)
[19]
  GI50: 27.6 µM (inactive)
[9]
  GI50: > 100 µM (inactive)
[10]
  GI50: > 100 µM (inactive)
[11]
  GI50: 44.3 µM (inactive)
[12]
  GI50: 64.3 µM (inactive)
[13]
  GI50: 16 µM (inactive)
[14]
  GI50: 6.67 µM (inactive)
[15]
  GI50: 53.5 µM (inactive)
[16]
  GI50: > 100 µM (inactive)

## O=C1N(c2ccccc2)N=C2c3ccncc3C3=NN(c4ccccc4)C(=O)C123 (centres undefined)
[1]
  GI50: > 100 µM (inactive)
[2]
  GI50: > 100 µM (inactive)
[3]
  GI50: 7.55 µM (inactive)
[18]
  GI50: 5.57 µM (inactive)
[4]
  GI50: 2.35 µM (inactive)
[5]
  GI50: > 100 µM (inactive)
[6]
  GI50: > 100 µM (inactive)
[19]
  GI50: > 100 µM (inactive)
[8]
  GI50: 2.26 µM (inactive)
[9]
  GI50: 27.1 µM (inactive)
[10]
  GI50: 0.556 µM (active)
[11]
  GI50: > 100 µM (inactive)
[12]
  GI50: > 35.6 µM (inactive)
[13]
  GI50: > 100 µM (inactive)
[14]
  GI50: 79.6 µM (inactive)
[15]
  GI50: 0.411 µM (active)
[16]
  GI50: 0.252 µM (active)
[17]
  GI50: > 32.7 µM (inactive)

## Oc1c(OCc2nnc(CCCCCCCCc3nnc(COc4ccc5ccccc5c4O)o3)o2)ccc2ccccc12
[1]
  GI50: > 100 µM (inactive)
[2]
  GI50: 39.9 µM (inactive)
[3]
  GI50: > 100 µM (inactive)
[18]
  GI50: > 100 µM (inactive)
[4]
  GI50: 59.6 µM (inactive)
[5]
  GI50: 83.9 µM (inactive)
[7]
  GI50: > 100 µM (inactive)
[19]
  GI50: 91.8 µM (inactive)
[9]
  GI50: > 100 µM (inactive)
[10]
  GI50: > 100 µM (inactive)
[11]
  GI50: > 100 µM (inactive)
[12]
  GI50: > 100 µM (inactive)
[13]
  GI50: 41.7 µM (inactive)
[16]
  GI50: 91.6 µM (inactive)
[17]
  GI50: 57.3 µM (inactive)

## Cc1cc(O)nc(/N=C(\N)Nc2ccc(Cl)cc2)n1
[1]
  GI50: > 100 µM (inactive)
[2]
  GI50: > 100 µM (inactive)
[3]
  GI50: > 100 µM (inactive)
[18]
  GI50: > 100 µM (inactive)
[4]
  GI50: > 100 µM (inactive)
[5]
  GI50: > 100 µM (inactive)
[6]
  GI50: > 100 µM (inactive)
[7]
  GI50: > 100 µM (inactive)
[19]
  GI50: > 100 µM (inactive)
[8]
  GI50: > 100 µM (inactive)
[9]
  GI50: > 100 µM (inactive)
[10]
  GI50: > 100 µM (inactive)
[11]
  GI50: > 100 µM (inactive)
[13]
  GI50: > 100 µM (inactive)
[14]
  GI50: > 100 µM (inactive)
[15]
  GI50: > 100 µM (inactive)
[16]
  GI50: > 100 µM (inactive)
[17]
  GI50: > 100 µM (inactive)

## COc1cc2nc(NCCCCCNC(=O)c3ccco3)nc(N)c2cc1OC
[1]
  GI50: 27.6 µM (inactive)
[2]
  GI50: 38.2 µM (inactive)
[3]
  GI50: 19.2 µM (inactive)
[18]
  GI50: 22.2 µM (inactive)
[4]
  GI50: > 100 µM (inactive)
[5]
  GI50: 39.8 µM (inactive)
[6]
  GI50: 24.7 µM (inactive)
[9]
  GI50: 19.5 µM (inactive)
[10]
  GI50: 24 µM (inactive)
[11]
  GI50: > 100 µM (inactive)
[13]
  GI50: 20.5 µM (inactive)
[16]
  GI50: 29.1 µM (inactive)
[17]
  GI50: 74.8 µM (inactive)

## Cc1c(Cl)nc(Nc2nc3ccccc3[nH]2)nc1Cl
[1]
  GI50: > 100 µM (inactive)
[2]
  GI50: > 100 µM (inactive)
[3]
  GI50: > 100 µM (inactive)
[18]
  GI50: > 100 µM (inactive)
[4]
  GI50: > 100 µM (inactive)
[5]
  GI50: 41 µM (inactive)
[7]
  GI50: 39.4 µM (inactive)
[8]
  GI50: 43.7 µM (inactive)
[9]
  GI50: > 100 µM (inactive)
[10]
  GI50: 17.1 µM (inactive)
[11]
  GI50: 21.9 µM (inactive)
[13]
  GI50: > 100 µM (inactive)
[14]
  GI50: 19.9 µM (inactive)
[16]
  GI50: > 100 µM (inactive)
[17]
  GI50: > 100 µM (inactive)

## O=C(Nc1c(O)[nH]c(=S)[nH]c1=O)c1ccco1
[2]
  GI50: > 100 µM (inactive)
[3]
  GI50: > 100 µM (inactive)
[18]
  GI50: > 100 µM (inactive)
[4]
  GI50: > 100 µM (inactive)
[5]
  GI50: > 100 µM (inactive)
[6]
  GI50: > 100 µM (inactive)
[9]
  GI50: > 100 µM (inactive)
[10]
  GI50: > 100 µM (inactive)
[13]
  GI50: > 100 µM (inactive)
[14]
  GI50: > 100 µM (inactive)
[15]
  GI50: > 100 µM (inactive)
[16]
  GI50: > 100 µM (inactive)
[17]
  GI50: > 100 µM (inactive)

## CC(=O)OC(COc1ccc2c(c1)[n+]([O-])nc(N)[n+]2[O-])CN1CCCCC1 (centres undefined)
[1]
  GI50: 16.5 µM (inactive)
[2]
  GI50: 22.3 µM (inactive)
[3]
  GI50: 3.78 µM (inactive)
[4]
  GI50: 25.3 µM (inactive)
[5]
  GI50: 7.62 µM (inactive)
[6]
  GI50: 13.6 µM (inactive)
[7]
  GI50: 18.3 µM (inactive)
[19]
  GI50: 5.61 µM (inactive)
[9]
  GI50: 12.5 µM (inactive)
[10]
  GI50: 13.1 µM (inactive)
[12]
  GI50: 4.71 µM (inactive)
[13]
  GI50: 13.5 µM (inactive)
[14]
  GI50: 12.2 µM (inactive)
[16]
  GI50: 7.69 µM (inactive)
[17]
  GI50: 15.3 µM (inactive)

## COc1ccc(NC(C)c2ccncc2)cc1 (centres undefined)
[1]
  GI50: > 100 µM (inactive)
[2]
  GI50: > 100 µM (inactive)
[3]
  GI50: > 100 µM (inactive)
[4]
  GI50: > 100 µM (inactive)
[5]
  GI50: > 100 µM (inactive)
[6]
  GI50: > 100 µM (inactive)
[7]
  GI50: > 100 µM (inactive)
[19]
  GI50: > 100 µM (inactive)
[8]
  GI50: > 100 µM (inactive)
[9]
  GI50: > 10 µM (inactive)
[10]
  GI50: > 100 µM (inactive)
[11]
  GI50: > 100 µM (inactive)
[12]
  GI50: > 100 µM (inactive)
[13]
  GI50: > 100 µM (inactive)
[15]
  GI50: > 100 µM (inactive)
[16]
  GI50: > 100 µM (inactive)
[17]
  GI50: > 100 µM (inactive)

## COC(=O)c1c2c(cc3c1CC1(C3)Cc3cc4c(c(C(=O)OC)c3C1)CCCC4)CCCC2
[1]
  GI50: > 100 µM (inactive)
[3]
  GI50: 53.3 µM (inactive)
[18]
  GI50: > 100 µM (inactive)
[4]
  GI50: 0.381 µM (active)
[5]
  GI50: > 100 µM (inactive)
[6]
  GI50: > 100 µM (inactive)
[19]
  GI50: > 100 µM (inactive)
[8]
  GI50: > 100 µM (inactive)
[9]
  GI50: > 100 µM (inactive)
[10]
  GI50: > 100 µM (inactive)
[11]
  GI50: > 100 µM (inactive)
[12]
  GI50: > 100 µM (inactive)
[13]
  GI50: > 100 µM (inactive)
[15]
  GI50: > 100 µM (inactive)
[16]
  GI50: 43 µM (inactive)
[17]
  GI50: > 100 µM (inactive)

## O=C(CCl)N1CCN(c2ccccn2)CC1
[1]
  GI50: 23.4 µM (inactive)
[2]
  GI50: 57.1 µM (inactive)
[3]
  GI50: 18.1 µM (inactive)
[4]
  GI50: 21.8 µM (inactive)
[7]
  GI50: > 100 µM (inactive)
[8]
  GI50: 13.2 µM (inactive)
[9]
  GI50: 30.3 µM (inactive)
[10]
  GI50: 34.5 µM (inactive)
[11]
  GI50: 26.9 µM (inactive)
[12]
  GI50: 23.9 µM (inactive)
[13]
  GI50: 17.9 µM (inactive)
[14]
  GI50: 34.9 µM (inactive)
[16]
  GI50: 31.7 µM (inactive)
[17]
  GI50: > 10 µM (inactive)
